Laboratory results taken from patent US20070112057A1, “Polymorphic forms of tegaserod maleate” (priority 2005, published 2007).

What was measured:
[1] = cited from earlier work
[2] = Water absorption (hygroscopicity) test under 80% relative humidity; assay type: physicochemical; settings: room temperature, 37 days
[3] = Weight loss measured by TGA; assay type: physicochemical; settings: range of about 25° C. to about 200° C.
Description: Form Z has a weight loss of about 0.1% by weight at the range of about 25° C. to about 200° C., as measured by TGA.

hygroscopicity (water absorption) [2] | weight loss as measured by TGA [3] | Structure (SMILES) | solubility in ethanol ([1]; ethanol) | solubility in water ([1]; water)
 |  | CCCCCNC(=N)N/N=C/c1c[nH]c2ccc(OC)cc12.O=C(O)/C=C\C(=O)O [Tegaserod maleate, 3-(5-methoxy-1H-indole-3-ylmethylene)-N-pentylcarbazimidamide hydrogen maleate] | slightly soluble | very slightly soluble
non hygroscopic | about 0.1 % by weight | CCCCCNC(=N)N/N=C/c1c[nH]c2ccc(OC)cc12.O=C(O)/C=C\C(=O)O [Form Z, tegaserod maleate] |  | 
